In PubChem BioAssay (NCI):
Values joined by “and” are separate entries in the source; they are usually repeats but may differ in a detail not shown here. Equal values may be shown once.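 A five-concentration, 48-hour dose response in 96-well plates underlies each endpoint, interpolated linearly between surrounding concentrations. GI50 marks 50% less growth. TGI: total growth inhibition.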

Tests used:
Experiment in all cases: growth of human tumour cells (NCI), 48 h
SK-MEL-5 melanoma = tested on: SK-MEL-5 melanoma
TK-10 renal = tested on: TK-10 renal
LOX IMVI melanoma = tested on: LOX IMVI melanoma
UACC-62 melanoma = tested on: UACC-62 melanoma
OVCAR-4 ovarian = tested on: OVCAR-4 ovarian
CCRF-CEM leukemia = tested on: CCRF-CEM leukemia
SW-620 colon = tested on: SW-620 colon
HT29 colon = tested on: HT29 colon
HCT-116 colon = tested on: HCT-116 colon
K-562 leukemia = tested on: K-562 leukemia
U251 CNS = tested on: U251 CNS

SMILES	TGI (SK-MEL-5 melanoma)	TGI (TK-10 renal)	TGI (LOX IMVI melanoma)	TGI (UACC-62 melanoma)	TGI (OVCAR-4 ovarian)	TGI (CCRF-CEM leukemia) [µM]	TGI (SW-620 colon)	TGI (HT29 colon)	TGI (HCT-116 colon)	TGI (K-562 leukemia)	TGI (U251 CNS)	GI50 (U251 CNS) [µM]	GI50 (SK-MEL-5 melanoma) [µM]	GI50 (TK-10 renal) [µM]	GI50 (LOX IMVI melanoma) [µM]	GI50 (UACC-62 melanoma) [µM]	GI50 (OVCAR-4 ovarian) [µM]	GI50 (HT29 colon) [µM]	GI50 (HCT-116 colon) [µM]	GI50 (K-562 leukemia) [µM]
Cc1ccc([N+](=O)[O-])cc1S(=O)(=O)Nc1ccc(C2=NOC(c3ccccc3O)C2)cc1 (centres undefined)	49.4 µM	> 100 µM	> 100 µM	98.9 µM	22.4 µM	> 100	> 100 µM	30.8 µM	34.5 µM	> 100 µM	–	–	–	–	–	–	–	–	–	–
CCO[C@]12CCC[C@H]1[C@@H]1C(=O)c3ccccc3C(=O)C1=C(C)O2	> 100 µM	> 100 µM	44.7 µM	> 100 µM	97.9 µM	> 100	> 100 µM	> 100 µM	–	94.7 µM	> 100 µM	–	–	–	–	–	–	–	–	–
O=C(NC(Cc1ccc(I)cc1)C(=O)O)c1ccc(Cl)cc1 (centres undefined)	> 100 µM	–	> 100 µM	> 100 µM	> 100 µM	> 100	> 100 µM	> 100 µM	> 100 µM	> 100 µM	> 100 µM	–	–	–	–	–	–	–	–	–
NCCNCCNc1ccc(NCCNCCN)c2c1C(=O)c1c(O)ccc(O)c1C2=O	> 100 µM	> 100 µM	> 100 µM	> 100 µM	> 100 µM	> 100	> 100 µM	> 100 µM	> 100 µM	> 100 µM	> 100 µM	–	–	–	–	–	–	–	–	–
CNC(C)Cc1ccccc1OC (centres undefined)	> 100 µM	> 100 µM	> 100 µM	> 100 µM	> 100 µM	> 100	> 100 µM	> 100 µM	> 100 µM	> 100 µM	> 100 µM	–	–	–	–	–	–	–	–	–
c1c2c(cc3c1OCO3)-c1cc3ccc4c(c3c[n+]1CC2)OCO4	> 5 µM	> 12.5 µM	> 8.44 µM	> 12.5 µM	> 12.5 µM	> 12.5	> 12.5 µM	> 12.5 µM	> 5.82 µM	> 12.5 µM	> 11.4 µM	–	–	–	–	–	–	–	–	–
C[N+](C)(C)CCN[N+]1(C)CCCc2ccccc21 (centres undefined)	> 100 µM	> 100 µM	> 100 µM	> 100 µM	> 100 µM	–	> 100 µM	> 100 µM	> 100 µM	> 100 µM	> 100 µM	–	–	–	–	–	–	–	–	–
CC1CC(Br)C(=O)O1 (centres undefined)	> 100 µM	> 100 µM	> 100 µM	> 100 µM	> 100 µM	> 100	> 100 µM	> 100 µM	> 100 µM	> 100 µM	> 100 µM	–	–	–	–	–	–	–	–	–
COC(=O)/C=C1\CCCN1CCc1cc2c(cc1CC#N)OCO2	81.2 µM	> 100 µM	> 100 µM	> 100 µM	> 100 µM	> 100	> 100 µM	> 100 µM	> 100 µM	> 100 µM	> 100 µM	–	–	–	–	–	–	–	–	–
Oc1ccc(-c2nc3cc(F)ccc3s2)cc1	41.6 µM	56 µM	33.3 µM	36.4 µM	36.9 µM	> 100	> 100 µM	56.7 µM	42.1 µM	72.3 µM	42.6 µM	–	–	–	–	–	–	–	–	–
O=C1OC2(OC2c2ccc(Cl)cc2)c2ccccc21 (centres undefined)	–	> 100 µM	34 µM	> 100 µM	> 100 µM	> 100	> 100 µM	> 100 µM	> 100 µM	> 100 µM	–	–	–	–	–	–	–	–	–	–
CO/N=C(\C)c1cccc(Nc2nc3ccccc3c3occc23)c1	28.7 µM	26 µM	31.6 µM	2.18 µM	31.8 µM	37.7	–	17.6 µM	23.8 µM	38.2 µM	33.2 µM	–	–	–	–	–	–	–	–	–
CN(C)c1ccc(/C=c2/c3ccccc3n3c2cc(NC(=O)NCCC[N+](C)(C)C)[n+]3C)cc1	> 100 µM	> 100 µM	> 100 µM	> 100 µM	50.1 µM	2.04	> 100 µM	> 100 µM	> 100 µM	> 100 µM	> 100 µM	–	–	–	–	–	–	–	–	–
CS(=O)(=O)OCCN(CCOS(C)(=O)=O)c1ccc(/C=N/Nc2ncnc3nc[nH]c23)cc1	31.7 µM	63.6 µM	37.7 µM	27.8 µM	60 µM	> 100	66.8 µM	65.9 µM	59.9 µM	> 100 µM	53.5 µM	–	–	–	–	–	–	–	–	–
O=C(CSc1nc2ccc(I)cc2c(=O)n1Cc1ccccc1)NN1C(=O)c2ccccc2C1=O	68.6 µM	30.4 µM	44.9 µM	70.7 µM	38.2 µM	–	> 100 µM	> 100 µM	> 100 µM	> 100 µM	30.1 µM	–	–	–	–	–	–	–	–	–
Cc1ccc(N=NC(C2=NC(=O)CS2)c2nc3ccccc3[nH]2)cc1 (centres undefined)	> 100 µM	> 100 µM	–	> 100 µM	> 100 µM	> 100	> 100 µM	> 100 µM	> 100 µM	> 100 µM	> 100 µM	–	–	–	–	–	–	–	–	–
Cc1c2cc[n+](C)cc2c(C)c2c1oc1ccccc12	14.1 µM	98.8 µM	19.7 µM	16.5 µM	21.8 µM	45.9	51.4 µM	> 77.1 µM	24.5 µM	34.9 µM	3.37 µM	–	–	–	–	–	–	–	–	–
COC(=O)NC1C(C)OC(OC2C/C=C(/C)C3C=CC4C(OC5CC(OC6CC(OC7CC(O)C(O)C(C)O7)C(OC7CC(O)C(OC)C(C)O7)C(C)O6)C(O)C(C)O5)C(C)CC(C)C4C3(C)/C(O)=C3\C(=O)OC4(CC(C)C(CO)=CC4/C=C\2C)C3=O)CC1(C)[N+](=O)[O-] (centres undefined)	> 100 µM	40.6 µM	14.8 µM	17.8 µM	46.2 µM	15.9	> 100 µM	20.5 µM	3.09 µM	–	44.9 µM	–	–	–	–	–	–	–	–	–
CCSc1nc(-c2cccs2)nc2ccc(I)cc12	> 100 µM	> 100 µM	> 100 µM	> 100 µM	> 100 µM	> 100	> 100 µM	> 100 µM	> 100 µM	> 100 µM	> 100 µM	–	–	–	–	–	–	–	–	–
CCCCCCCN(CCCCCCC)CC(O)c1cc2ccccc2c2cc(Br)ccc12 (centres undefined)	–	> 100 µM	> 100 µM	> 100 µM	> 100 µM	> 100	> 100 µM	> 100 µM	> 100 µM	> 100 µM	45.6 µM	–	–	–	–	–	–	–	–	–
Cc1[nH]n(-c2ccccc2)c(=O)c1C(N(CCc1ccccc1)C1=NCC(C)S1)(C(F)(F)F)C(F)(F)F (centres undefined)	21.5 µM	> 100 µM	> 100 µM	24 µM	> 100 µM	68.7	95.3 µM	> 100 µM	23.8 µM	> 100 µM	31.2 µM	–	–	–	–	–	–	–	–	–
COC(=O)c1ccccc1C1=C([N+](=O)[O-])C(c2cccc(Br)c2)C(C#N)=C(N)O1 (centres undefined)	> 100 µM	> 100 µM	38.1 µM	42.7 µM	–	61.8	71.4 µM	> 100 µM	92.9 µM	76.5 µM	> 100 µM	–	–	–	–	–	–	–	–	–
COc1cc([N+](=O)[O-])ccc1NC(=O)c1cccc([N+](=O)[O-])c1O	31 µM	–	> 100 µM	> 100 µM	> 100 µM	> 100	> 100 µM	> 100 µM	> 100 µM	> 100 µM	> 100 µM	–	–	–	–	–	–	–	–	–
CCc1ccc2c(c1)C(=O)c1c-2n(CCCN)c(=O)c2cc([N+](=O)[O-])ccc12	3.12 µM	2.49 µM	2.62 µM	2.83 µM	3 µM	–	–	2.07 µM	1.89 µM	0.756 µM	2.29 µM	1.07	1.6	1.2	1.19	1.48	1.39	0.452	0.573	0.243
N=C(N)SCc1cccc([N+](=O)[O-])c1	> 100 µM	–	> 100 µM	> 100 µM	> 83.1 µM	> 85.9	> 100 µM	85.1 µM	> 83.7 µM	> 62.3 µM	97.3 µM	–	–	–	–	–	–	–	–	–
CC1(C=O)CCC23COC4(CCC5C6(C)CCC(OC7OCC(OC8OC(CO)C(O)C(OC9OC(CO)C(O)C(O)C9O)C8OC8OCC(O)C(O)C8O)C(O)C7OC7OC(CO)C(O)C(O)C7O)C(C)(C)C6CCC5(C)C4(C)CC2O)C3C1 (centres undefined)	2.96 µM	3.33 µM	–	3.17 µM	2.38 µM	0.789	3.14 µM	2.07 µM	2.74 µM	> 100 µM	> 100 µM	–	–	–	–	–	–	–	–	–
CN(C)CCCN1c2ccc([N+](=O)[O-])cc2CCc2cc([N+](=O)[O-])ccc21	29.5 µM and 23.1 µM	23.3 µM and 24.3 µM	32.4 µM and 26.5 µM	26.3 µM and 28.2 µM	14 µM and 31.3 µM	28.4	34 µM and 33.2 µM	30.8 µM and 27.7 µM	27.4 µM and 27.1 µM	59.5 µM and 31.2 µM	30.2 µM and 27.6 µM	–	–	–	–	–	–	–	–	–
c1ccc([P+](c2ccccc2)(c2ccccc2)c2ccc(-c3ccc([P+](c4ccccc4)(c4ccccc4)c4ccccc4)cc3)cc2)cc1	3.32 µM	> 100 µM	51.9 µM	> 100 µM	94.8 µM	> 100	> 100 µM	63.5 µM	58 µM	> 100 µM	> 100 µM	–	–	–	–	–	–	–	–	–
C[n+]1c2ccccc2c(CNC(CS)C(=O)O)c2ccccc21 (centres undefined)	–	> 100 µM	–	29.6 µM	> 100 µM	62.4	> 100 µM	> 100 µM	37.8 µM	> 100 µM	66.7 µM	–	–	–	–	–	–	–	–	–
